Holding throughout (assay): in vitro antifungal activity, twofold agar dilution method
Common to all, as to type: cell-based

One test relates to Microsporum canis. The following applies: KCTC11621, KCTC No 11621, potato dextrose agar.
A further test concerns Aspergillus niger. As to conditions: KCTC2119, KCTC No 2119, potato dextrose agar.
Another test deals with Candida glabrata. As to conditions: Nakaseomyces glabratus, KCTC1714; KCTC No 1714; potato dextrose agar.
In the next test the test system is Microsporum gypseum. The following applies: Nannizzia gypsea, KCTC1252; KCTC No 1252; potato dextrose agar.
For a further test, the system named is Saccharomyces cerevisiae. As to conditions: KCTC1213, KCTC No 1213, potato dextrose agar.
Another test concerns Cryptococcus neoformans. As to conditions: KCTC1197, KCTC No 1197, potato dextrose agar.
The next test has as its system Fusarium oxysporum. As to conditions: KCTC6084, KCTC No 6084, potato dextrose agar.
The test system of test [1] is Trichophyton mentagrophyte. As to conditions: KCTC6085, KCTC No 6085, potato dextrose agar.
For a further test, the system named is Trichophyton rubrum. The following applies: KCTC38484, KCTC No 38484, potato dextrose agar.
In another test the test system is Rhizopus stolonifer. The following applies: KCTC6062, KCTC No 6062, potato dextrose agar.
For another test, the system named is Epidennophyton floccosum.
Test [2] relates to Candida albicans. As to conditions: KCTC38245.
Test [3] concerns Candida albicans. As to conditions: KCTC1940, KCTC No 1940, potato dextrose agar.

≈ marks a conversion by molar mass, not a printed value.

One may read the MIC as the smallest concentration in the dilution series that meets the test's criterion for growth inhibition. For the molecule `C[C@@H]1[C@H](O)[C@@H](C)/C=C/C=C/C=C/C=C/C=C/C=C/C=C/[C@H](O[C@@H]2O[C@H](C)[C@@H](O)[C@H](N)[C@@H]2O)C[C@@H]2O[C@](O)(C[C@@H](O)C[C@@H](O)[C@H](O)CC[C@@H](O)C[C@@H](O)CC(=O)O[C@H]1C)C[C@H](O)[C@H]2C(=O)O` [Amphotericin-B], the MIC with Microsporum canis was 0.391 µg/mL (≈ 0.423 µM); in the test with Aspergillus niger, 0.196 µg/mL (≈ 0.212 µM); in the test on Candida glabrata, 0.196 µg/mL (≈ 0.212 µM); in the test with Microsporum gypseum it was 0.196 µg/mL (≈ 0.212 µM); against Saccharomyces cerevisiae, 0.098 µg/mL (≈ 0.106 µM); against Cryptococcus neoformans, 0.098 µg/mL (≈ 0.106 µM). The MIC is 0.196 µg/mL (≈ 0.212 µM) in the test on Fusarium oxysporum; 3.12 µg/mL (≈ 3.38 µM) in test [1]; 0.782 µg/mL (≈ 0.846 µM) in the test on Trichophyton rubrum; 0.391 µg/mL (≈ 0.423 µM) with Rhizopus stolonifer; 3.12 µg/mL (≈ 3.38 µM) with Epidennophyton floccosum; 0.782 µg/mL (≈ 0.846 µM) against Candida albicans [2]. The lowest concentration to inhibit growth against Candida albicans [3] (MIC) was 0.782 µg/mL (≈ 0.846 µM).

(Values after patent US5786460A (Cheil Foods & Chemicals, Inc., priority 1993, dated 1998).)
